According to publication PMC2747684, “Sustained antiproliferative mechanisms by RB24, a targeted precursor of multiple inhibitors of epidermal growth factor receptor and a DNA alkylating agent in the A431 epidermal carcinoma of the vulva cell line” (British Journal of Cancer, 2004):

Columns and labels:
[1] = biological target: T1, epidermal growth factor receptor (EGFR) (Homo sapiens, UniProt P00533)
[2] = biological target: T1, epidermal growth factor receptor (EGFR); test: EGF-induced EGFR autophosphorylation in A431 cells (Western blot), with washout reversibility assay; format: cell-based

T1 sequence (P00533 25-1210): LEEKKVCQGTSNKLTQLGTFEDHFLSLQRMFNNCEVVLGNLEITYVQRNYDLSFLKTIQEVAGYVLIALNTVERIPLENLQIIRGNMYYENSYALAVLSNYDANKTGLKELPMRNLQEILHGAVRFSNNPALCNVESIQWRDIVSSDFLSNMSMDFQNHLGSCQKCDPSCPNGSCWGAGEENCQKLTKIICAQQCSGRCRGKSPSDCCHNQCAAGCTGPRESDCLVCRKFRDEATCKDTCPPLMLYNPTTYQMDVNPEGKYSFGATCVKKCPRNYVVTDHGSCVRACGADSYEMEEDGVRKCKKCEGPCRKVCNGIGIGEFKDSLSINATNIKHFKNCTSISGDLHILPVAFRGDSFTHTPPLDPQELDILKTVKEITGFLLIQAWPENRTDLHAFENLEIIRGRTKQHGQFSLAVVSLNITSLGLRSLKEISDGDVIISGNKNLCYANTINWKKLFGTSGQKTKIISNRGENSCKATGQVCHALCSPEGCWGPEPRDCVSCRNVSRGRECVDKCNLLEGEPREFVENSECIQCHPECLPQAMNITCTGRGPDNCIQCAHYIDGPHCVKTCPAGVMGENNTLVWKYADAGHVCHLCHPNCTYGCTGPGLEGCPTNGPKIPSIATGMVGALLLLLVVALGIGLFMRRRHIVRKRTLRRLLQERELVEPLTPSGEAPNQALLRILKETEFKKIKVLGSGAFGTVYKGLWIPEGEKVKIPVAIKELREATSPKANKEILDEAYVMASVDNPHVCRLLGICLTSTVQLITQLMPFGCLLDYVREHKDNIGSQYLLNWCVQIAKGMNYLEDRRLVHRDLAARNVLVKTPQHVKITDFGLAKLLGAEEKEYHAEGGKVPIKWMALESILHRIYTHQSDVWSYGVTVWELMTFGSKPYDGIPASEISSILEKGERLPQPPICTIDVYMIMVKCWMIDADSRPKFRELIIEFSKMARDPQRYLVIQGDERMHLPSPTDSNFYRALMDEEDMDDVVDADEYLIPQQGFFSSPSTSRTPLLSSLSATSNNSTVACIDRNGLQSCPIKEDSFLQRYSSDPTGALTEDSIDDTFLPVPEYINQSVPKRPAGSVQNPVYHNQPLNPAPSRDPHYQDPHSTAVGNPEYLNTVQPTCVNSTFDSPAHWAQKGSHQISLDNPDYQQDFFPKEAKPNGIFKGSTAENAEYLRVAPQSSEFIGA

Row | SMILES | EGFR autophosphorylation in A431 cells at 30 μM, before and after washout (Weste) [1] | IC50 [2]
1 | Nc1ccc2ncnc(Nc3cccc(Br)c3)c2c1 [RB10] | the naked inhibitor, RB10, was shown to have completely reversible inhibition of EGFR autophosphorylation | –
2 | CN(CO)/N=N/c1ccc2ncnc(Nc3cccc(Br)c3)c2c1 [RB14] | irreversible inhibition was observed in cells exposed to the daughter molecules, RB14 and ZR08 | –
3 | CC(=O)OCN(C)/N=N/c1ccc2ncnc(Nc3cccc(Br)c3)c2c1 [RB24] | – | ~2000 nM
